Source: patent publication US4448714A, “Antibiotic polypeptide compounds prepared from staphlococcus bacteria” (priority 1979, dated 1984)

Tested on: S. Epidermidis NCIB 11536
Assay: Antibiotic sensitivities of the producer strain (disc)
Assay type: cell-based
Conditions: 5 μg disc; strain characteristics table

CO[C@@H]1[C@@H](OC(N)=O)[C@@H](O)[C@H](Oc2ccc3c(O)c(NC(=O)c4ccc(O)c(CC=C(C)C)c4)c(=O)oc3c2C)OC1(C)C [novobiocin]
Novobiocin sensitivity: sensitive
